Source: PMC6522510 (Nature Communications, 2019)
Like-named read-outs stand apart in the source and are kept apart here.

Experiments:
Assay in all cases: cells
Parameters in all cases: species or system AML cell lines (8); Secondary HTS, 10-point dose-response in triplicate, Cell Titer Glo viability, four-parameter fit EC50
ML-2 = settings: Homo sapiens, read-out: ML-2
CHRF288-11 = settings: read-out: CHRF288-11
CMS = settings: read-out: CMS
U937 = settings: Homo sapiens, read-out: U937
M07e = settings: M-07e, read-out: M07e
MV4-11 = settings: Homo sapiens, read-out: MV4-11
CMK = settings: Homo sapiens, read-out: CMK
MOLM-13 = settings: Homo sapiens, read-out: MOLM-13

Row | Structure (SMILES) | EC50 (ML-2; ML-2, 72 h) [µM] | EC50 (CHRF288-11; 72 h) [µM] | EC50 (CMS; 72 h) [µM] | EC50 (U937; U-937, 72 h) [µM] | EC50 (M07e; 72 h) [µM] | EC50 (MV4-11; MV4-11, 72 h) [µM] | EC50 (CMK; CMK, 72 h) [µM] | EC50 (MOLM-13; MOLM-13, 72 h) [µM] | EC50 (ML-2; 72 h cell viability) [µM] | EC50 (CHRF288-11; 72 h cell viability) [µM] | EC50 (CMS; 72 h cell viability) [µM] | EC50 (U937; U-937, 72 h cell viability) [µM] | EC50 (M07e; 72 h cell viability) [µM] | EC50 (MV4-11; 72 h cell viability) [µM] | EC50 (CMK; 72 h cell viability) [µM] | EC50 (MOLM-13; 72 h cell viability) [µM]
1 | COc1ccc(-c2cc3c(C)nc(N)nc3n([C@H]3CC[C@H](OCCO)CC3)c2=O)cn1 [SJ000784313, PF-04691502] | 0.23 | 4.3 | 0.34 | 0.6 | > 10 | 0.001 | 1.4 | 2.1 | – | – | – | – | – | – | – | –
2 | CN[C@@H]1C[C@H]2O[C@@](C)([C@@H]1OC)n1c3ccccc3c3c4c(c5c6ccccc6n2c5c31)C(=O)N[C@H]4O [SJ000784325, 7-HYDROXYSTAUROSPORINE] | 0.25 | 0.35 | 0.41 | 0.26 | > 10 | 0.19 | 0.23 | 0.065 | – | – | – | – | – | – | – | –
3 | Nc1nc(=O)n([C@H]2C[C@H](O)[C@@H](CO)O2)cc1F [SJ000785889, 5-FLUORODEOXYCYTIDINE] | 0.0089 | 3.17 | > 10 | > 10 | > 10 | > 10 | 0.14 | 0.45 | – | – | – | – | – | – | – | –
4 | COc1cc2c(cc1-c1c(C)noc1C)ncc1[nH]c(=O)n([C@H](C)c3ccccn3)c12 [SJ000785891, I-BET151] | 2.7 | 5.1 | 2.1 | 3.2 | > 10 | > 10 | > 10 | 0.65 | – | – | – | – | – | – | – | –
5 | Fc1ccc(CNc2ncnc3ccc(F)cc23)cc1 [SJ000785893, SPAUTIN-1] | > 10 | > 10 | > 10 | 3 | > 10 | > 10 | > 10 | > 10 | – | – | – | – | – | – | – | –
6 | Nc1ncnc2c1ncn2[C@@H]1O[C@H](C(=O)N2CCN(CC(=O)Nc3cccc4c3CNC4=O)CC2)[C@@H](O)[C@H]1O [SJ000785896, EB-47] | > 10 | > 10 | > 10 | > 10 | > 10 | > 10 | > 10 | > 10 | – | – | – | – | – | – | – | –
7 | CCCCCCCCCCCCCCCc1cccc(O)c1C(=O)O [SJ000785900, ANACARDIC ACID] | > 10 | > 10 | > 10 | > 10 | > 10 | > 10 | > 10 | > 10 | – | – | – | – | – | – | – | –
8 | COc1cc2c(NC3CCN(C)CC3)nc(N3CCCN(C)CC3)nc2cc1OCCOCCN(C)C [SJ000785901, UNC0321] | > 10 | > 10 | > 10 | > 10 | > 10 | > 10 | > 10 | > 10 | – | – | – | – | – | – | – | –
9 | Cc1cc(Nc2ccc(NC(=O)c3ccc(Nc4ccnc5ccccc45)cc3)cc2)nc(N)n1 [SJ000785906, SGI-1027] | 2.6 | 2.8 | 9.9 | 0.75 | 1.6 | 1.2 | > 10 | 1.4 | – | – | – | – | – | – | – | –
10 | CC(C)(O)[C@@H]1CC[C@](C)([C@H]2[C@@H](O)C[C@@]3(C)[C@@H]4C[C@H](O[C@@H]5O[C@H](CO)[C@@H](O)[C@H](O)[C@H]5O)[C@H]5C(C)(C)[C@@H](O[C@@H]6OC[C@@H](O)[C@H](O)[C@H]6O)CC[C@@]56C[C@@]46CC[C@]23C)O1 [SJ000785909, ASTRAGALOSIDE IV] | 0.87 | 0.81 | > 10 | > 10 | > 10 | > 10 | > 10 | 4.3 | – | – | – | – | – | – | – | –
11 | C[C@@H]1NC(=O)[C@H]2CCCN2C(=O)[C@H](CCCCCC(=O)[C@@H]2CO2)NC(=O)[C@@H](C)NC1=O [SJ000785910, HC TOXIN] | – | – | – | – | – | – | – | – | 0.11 | 0.05 | 0.029 | 0.032 | 0.021 | > 10 | > 10 | 0.15
12 | O=C(NC(NC(=S)Nc1ccc(F)c([N+](=O)[O-])c1)C(Cl)(Cl)Cl)C(c1ccccc1)c1ccccc1 (centres unmarked) [SJ000786007, CGK 733] | > 10 | > 10 | > 10 | > 10 | > 10 | > 10 | > 10 | > 10 | – | – | – | – | – | – | – | –
13 | Cc1cc2nc(NCCCO)n(CC(=O)c3cc(C(C)(C)C)c(O)c(C(C)(C)C)c3)c2cc1C [SJ000786025, CID-2858522] | > 10 | > 10 | > 10 | > 10 | > 10 | > 10 | > 10 | > 10 | – | – | – | – | – | – | – | –
14 | N[C@H](CCC(=O)N[C@@H](Cc1c[nH]c2ccccc12)C(=O)O)C(=O)O [SJ000795988, GOLOTIMOD] | > 10 | > 10 | > 10 | > 10 | > 10 | > 10 | > 10 | > 10 | – | – | – | – | – | – | – | –
15 | Cc1ccc(C(=O)COC(=O)c2cccc(NC(=O)c3ccc([N+](=O)[O-])cc3[N+](=O)[O-])c2)cc1 [SJ000796012, FM19G11] | > 10 | > 10 | > 10 | > 10 | > 10 | > 10 | > 10 | > 10 | – | – | – | – | – | – | – | –
16 | CC(C)Oc1ccc(-c2cnc3c(-c4ccnc5ccccc45)cnn3c2)cc1 [SJ000796016, DMH-1] | > 10 | > 10 | > 10 | > 10 | > 10 | > 10 | > 10 | 0.0063 | – | – | – | – | – | – | – | –
17 | Cc1nn(C)c(C)c1C(=O)N1CCN(Cc2nc3ccccc3n2CC(C)(C)C)CC1 [SJ000796025, FTASE INHIBITOR III] | > 10 | > 10 | > 10 | > 10 | > 10 | > 10 | 3.1 | > 10 | – | – | – | – | – | – | – | –
18 | COC1=C2C[C@@H](C)C[C@H](OC)[C@H](O)[C@@H](C)/C=C(\C)[C@H](OC(N)=O)[C@@H](OC)/C=C\C=C(/C)C(=O)NC(=CC1=O)C2=O [SJ000796035, GELDANOMYCIN] | > 10 | > 10 | > 10 | > 10 | > 10 | 0.0098 | > 10 | 0.021 | – | – | – | – | – | – | – | –
19 | COc1ccc(/C=C/c2ccccc2F)cc1 [SJ000796052, CAY10512] | > 10 | > 10 | > 10 | > 10 | > 10 | > 10 | > 10 | > 10 | – | – | – | – | – | – | – | –
20 | CCNC(=O)c1cc2c(-c3cc(OCCN4CCCC4)c(Cl)cc3Cl)nc(N)nc2s1 [SJ000796085, NVP-BEP800] | 0.21 | 0.43 | 0.4 | 0.15 | > 10 | 0.11 | 0.19 | 0.087 | – | – | – | – | – | – | – | –
21 | COC(=O)[C@H](CCSC)NC(=O)c1ccc(NC[C@@H](N)CS)cc1-c1ccccc1 [SJ000803699, FTI-277] | > 10 | > 10 | > 10 | > 10 | > 10 | > 10 | > 10 | > 10 | – | – | – | – | – | – | – | –
22 | O=C(c1cn(Cc2cncn2Cc2ccc(Br)cc2)cc1-c1cccc2ccccc12)N1CCOCC1 [SJ000803701, LB 42708] | 2.3 | > 10 | 3.4 | > 10 | > 10 | 5 | > 10 | 2.5 | – | – | – | – | – | – | – | –
23 | CSCC[C@@H](NC(=O)c1ccc(CNCc2cnc[nH]2)cc1-c1ccccc1C)C(=O)OCc1ccccc1 [SJ000803709, FTI-2628] | > 10 | > 10 | > 10 | 2 | > 10 | > 10 | > 10 | > 10 | – | – | – | – | – | – | – | –
24 | CSCC[C@H](NC(=O)c1ccc(NC(=O)[C@@H](N)CS)cc1)C(=O)O [SJ000803714, H-CYS-4-ABZ-MET-OH] | > 10 | > 10 | > 10 | 2.7 | > 10 | > 10 | > 10 | > 10 | – | – | – | – | – | – | – | –
25 | COC(=O)[C@H](CC(C)C)NC(=O)c1ccc(NCc2cnc[nH]2)cc1-c1cccc2ccccc12 [SJ000803715, GGTI-2147] | > 10 | > 10 | > 10 | > 10 | > 10 | > 10 | > 10 | 1.1 | – | – | – | – | – | – | – | –
